Laboratory results taken from ChEMBL document CHEMBL4483862, “Open-source discovery of chemical leads for next-generation chemoprotective antimalarials” (2018).
pIC50: −log10 of the molar value.

Tested on: Plasmodium berghei
Assay: Luciferase/luciferin-expressing antifolate-resistant parasites were used to infect a culture of HepG2 cells that were pre-incubated with compounds. Infected hepatocytes emit light due to the luciferase reaction. Assay results are presented as the percent inhibition of light emission compared to control. […]
Format: functional
Settings: sporozoite; for pIC50: read-out: LUCIFERASE INFECTION ASSAY - IC50; for IC90: read-out: LUCIFERASE INFECTION ASSAY - IC90

| SMILES | pIC50 | IC90 [µM] |
| --- | --- | --- |
| N#CC1=C2SC=C(c3ccc(Br)cc3)N2CCCC1=O | < 5.00 | > 10 |
| CN(CC(=O)Nc1ccc(Cl)c(Cl)c1)C(=O)C12CC3CC(CC(C3)C1)C2 | < 5.00 | > 10 |
| Cc1cc(C(=O)COC(=O)c2[nH]nc3ccccc23)c(C)n1CC1CCCO1 (stereo not given) | 6.38 | 0.491 |
| O=C(NCc1ccc(-c2nc3ccccc3s2)cc1)c1ccco1 | 5.55 | 3.45 |
| Cc1ccc(S(=O)(=O)c2c(C)nn(C(C)(C)C)c2OC(=O)c2cccs2)cc1 | < 5.00 | > 10 |
| CN(C)CCNCc1ccc(OC2CCCC2)cc1 | < 4.96 | > 11 |
| COc1cc(C(=O)OCC#N)ccc1OCc1c(C)noc1C | < 5.00 | > 10 |
| CN(C)C(S)=Nc1ccc(Cl)cc1 | < 4.81 | > 15.4 |
| CCOc1ccc(C(=O)CCC(=O)O)cc1 | < 4.83 | > 14.8 |
| COc1cccc(Nc2nc(C(N)Cc3ccc(F)cc3)cs2)n1 (stereo not given) | < 5.02 | > 9.58 |
| O=C(CN1CCNCC1)N1CCOCC1 | < 4.81 | > 15.5 |
| CCCCCc1c(C)nc(-c2ccccn2)nc1O | < 4.89 | > 12.8 |
| CCn1c2ccccc2c2cc(N)ccc21 | < 5.00 | > 10 |
| CCOC(=O)c1c(C)nn(-c2ccc(NC(=O)Nc3ccc(Cl)cc3)cc2)c1C | < 5.10 | > 7.99 |
| CSc1ccc(-c2cn3c(-c4cccc(CO)c4)cnc3cn2)cc1 | < 5.02 | > 9.5 |
| COc1ccc2nc3[nH]nc(N)c3cc2c1 | < 5.00 | > 10 |
| N#CCSC1=CC(=O)CC(c2ccccc2)S1 (stereo not given) | < 4.90 | > 12.6 |
| Cc1ccc(Sc2ncnc3sccc23)cc1 | < 4.89 | > 12.8 |
| Cc1nn(Cc2n[nH]c(=S)o2)c(C)c1Br | < 4.94 | > 11.4 |
| CC(C(=O)Nc1cc(S(=O)(=O)N2CCCCC2)ccc1Cl)N1CCN(c2ccccn2)CC1 (stereo not given) | < 5.00 | > 10 |
| Cc1sc2nc(CN3CCOCC3)nc(NCCOc3ccccc3)c2c1C | < 5.00 | > 10 |
| CCC(C)N1C(=O)Cc2c1nc(N)c1c(N)nc(N3CC(C)OC(C)C3)c(C#N)c21 (stereo not given) | < 5.00 | > 10 |
| CCCc1cc(N2CCN(C)CC2)n2ncc(-c3ccccc3)c2n1 | 5.57 | > 9.84 |

| SMILES | pIC50 | IC90 [µM] |
| --- | --- | --- |
| Cc1cc(NCc2cccnc2)n2nc(C(F)(F)F)c(-c3ccccc3)c2n1 | 5.11 | > 8.61 |
| Clc1ccc(-c2csc(NCC3CCCO3)n2)cc1 (stereo not given) | < 4.95 | > 11.2 |
| O=C(Nc1ccc(F)cc1)c1cccc(C(=O)Nc2ccc(F)cc2)n1 | 5.46 | 5.69 |
| Cc1nc(-c2cccs2)sc1NC(=O)Nc1ccc(Cl)cc1 | < 5.03 | > 9.43 |
| C=CCn1c(C)cc(C(=O)Cn2c(=O)c(=O)n(Cc3ccccc3)c3ccc(Cl)cc32)c1C | < 5.00 | > 10 |
| NNC(=O)c1cc2ccc3ccccc3c2s1 | < 4.87 | > 13.6 |
| CC(=O)Oc1cc2sc(=O)oc2c2ccccc12 | < 4.90 | > 12.7 |
| N#Cc1ccc(-c2csc(CS(=O)(=O)Cc3cccc(C(F)(F)F)c3)n2)cc1 | < 5.11 | > 7.81 |
| O=C(COC(=O)c1ccc2ccccc2n1)NCCc1ccccc1 | < 5.00 | > 10 |
| Cc1csc(Sc2ncnc3c2cnn3C)n1 | < 5.70 | > 2 |
| CCN1CCN(C(=O)C23CC4CC(C2)CC(c2ccc(C)cc2)(C4)C3)CC1 | < 5.00 | > 10 |
| CCOC(=O)c1cnc(NNC(=O)c2ccc(Cl)cc2Cl)nc1C(F)(F)F | < 5.11 | > 7.8 |
| CSc1nccc(-c2sc3scc(C)c3c2C)n1 | < 4.95 | > 11.3 |
| Clc1cncc2c1Sc1ccccc1N2 | 4.85 | > 14.1 |
| C=Cc1c(SC)sc(C(=O)O)c1C | < 4.81 | > 15.4 |
| FC(F)(F)c1ccnc(N2CCN(c3ncnc4scc(-c5ccccc5)c34)CC2)n1 | < 5.13 | > 7.46 |
| O=S(=O)(c1cc(C(F)(F)F)ccn1)c1cccs1 | < 4.95 | > 11.3 |
| Cc1nc2nc(-c3ccccc3)nn2c(N2CCCC2)c1Cc1ccccc1 | 5.48 | > 8.93 |
| CSc1sc(-c2ccon2)c(-c2cccs2)c1C#N | < 4.97 | > 10.8 |
| O=C(O)COc1ccccc1CS(=O)(=O)c1ccc(Cl)cc1 | < 5.01 | > 9.68 |
| Cc1cc(C(=N)NOC(=O)C(C)(C)C)cc(C(=N)NOC(=O)C(C)(C)C)c1 | < 5.06 | > 8.77 |
| O=C(NNC(=O)c1cccs1)c1cncc(C#Cc2ccccc2)c1 | < 5.02 | > 9.5 |
| CCC(CO)NC(=S)Nc1cc(C(F)(F)F)cc(C(F)(F)F)c1 (stereo not given) | < 5.04 | > 9.16 |

| SMILES | pIC50 | IC90 [µM] |
| --- | --- | --- |
| Cc1ccc(S(=O)(=O)CCN2CCC(C#N)CC2)cc1 | < 4.95 | > 11.3 |
| O=c1ccn(-c2ccc(Cl)cc2)nc1-c1ccnc(-c2ccccc2)n1 | < 5.04 | > 9.15 |
| CC1=C(C(=O)c2ccc(Cl)cc2)C(c2ccc(C(F)(F)F)cc2)NC(=O)N1 (stereo not given) | < 5.00 | > 10 |
| Cc1cccc(N2CCN(C(=O)c3nn(-c4ccccc4)c(=O)c4ccccc34)CC2)c1C | < 5.00 | > 10 |
| CCOc1ccc2nc(NC(=O)C3Cc4ccccc4CN3S(=O)(=O)c3ccc(C)cc3)sc2c1 (stereo not given) | < 5.00 | > 10 |
| Cc1ccc2nc(Cn3cc(C(F)(F)F)cc(Cl)c3=O)cn2c1 | < 5.00 | > 10 |
| CN(C)CCCNc1nc2sc3c(c2c(=O)n1-c1ccccc1)CCCCC3 | < 5.08 | > 8.32 |
| CN(C)C(=O)c1nnsc1S(=O)(=O)c1ccc(Cl)cc1 | 5.07 | > 9.95 |
| N=C(NOC(=O)Nc1ccc(OC(F)(F)F)cc1)c1cnccn1 | < 5.01 | > 9.67 |
| Cc1nnc(NC(=O)CN2C(=O)COc3ccc(Cl)cc32)s1 | < 5.01 | > 9.74 |
| CC(C)n1cc(-c2nc(C(=O)NNC(=O)c3ccccc3Cl)cs2)c(=O)n(Cc2ccccc2)c1=O | < 5.20 | > 6.3 |
| CCCCNC(=S)Nc1cc(C(F)(F)F)ccc1N1CCOCC1 | < 5.00 | > 10 |
| Cn1cc(C(=O)ONC(=N)c2ccc(C(C)(C)C)cc2)c(C(F)(F)F)n1 | < 5.05 | > 8.96 |
| O=C1c2ccccc2O[C@@H](c2ccccc2)[C@H]1O | < 4.86 | > 13.7 |
| O=C(CSCCCN1CCN(c2cccc(Cl)c2)CC1)NNC(=O)Nc1cc(Cl)cc(Cl)c1 | < 5.21 | > 6.22 |
| COc1ccc(OC)c(NC(=O)C2(C)CCN2Cc2ccc(C(C)C)cc2)c1 (stereo not given) | < 5.06 | > 8.63 |
| CCOC(=O)c1cc(C#N)c(Sc2ccccn2)nc1C(F)(F)F | < 5.03 | > 9.34 |
| Cc1ccc(-c2cc(=O)n(-c3nc4ccccc4[nH]3)[nH]2)cc1 | < 4.94 | > 11.4 |
| Cc1nc2cc3c(cc2n1CC(=O)N1CCN(c2ccccc2)CC1)OCCO3 | < 5.00 | > 10 |
| CCOc1ccccc1NC(=O)Cc1nc2nc(C)cc(C)n2n1 | < 5.00 | > 10.1 |
| O=C1CC(c2ccccc2Cl)Cc2c1cnn2-c1nc2ccccc2[nH]1 (stereo not given) | 5.49 | 3.82 |
| Cc1ccc(NC(=O)c2cc(C(C)(C)C)n(-c3ccccc3)c2C)cc1 | 6.28 | 4.46 |
| COc1cc(OC)c(C2Nc3cc(Cl)c(S(N)(=O)=O)cc3S(=O)(=O)N2)cc1OC (stereo not given) | < 5.00 | > 10 |

| SMILES | pIC50 | IC90 [µM] |
| --- | --- | --- |
| CCCc1cc(NCCCN2CCOCC2)n2nc(C)c(-c3ccccc3)c2n1 | < 5.08 | > 8.39 |
| CCOC(=O)c1c(C)[nH]c(C(=O)COC(=O)c2ccc(CO)cc2)c1C | < 5.00 | > 10 |
| CCNC(=O)N1CCc2nc(Nc3cc(C)cc(C)c3)ncc2C1 | < 5.00 | > 10.1 |
| Fc1ccc(-c2csc(NCC3CCCO3)n2)cc1 (stereo not given) | < 4.92 | > 11.9 |
| CC(C)N(C(=O)CSc1nnc(-c2cccc(S(=O)(=O)N3CCOCC3)c2)n1-c1ccc(F)cc1)c1ccccc1 | < 5.00 | > 10 |
| C=S(=O)(NC(=O)CSc1ccc(Cl)cc1)c1ccc(C)cc1 (stereo not given) | < 5.03 | > 9.32 |
| CCN(CC)CC(O)COc1cc(C(F)(F)F)ccn1 (stereo not given) | < 4.95 | > 11.3 |
| Cc1nn(Cc2ccccc2Cl)c2sc(C(=O)NC3CCN(Cc4ccccc4)CC3)cc12 | < 5.00 | > 10 |
| CC1CN(c2nc(N)c3c(N)nc4c(c3c2C#N)CC(=O)N4C2CCCC2)CC(C)O1 (stereo not given) | < 5.00 | > 10 |
| OCCNCCNCc1c(OCc2ccccc2F)ccc2ccccc12 | < 5.05 | > 8.96 |
| CCOC(=O)N1CCN(CC(O)COc2ccc3oc4ccccc4c3c2)CC1 (stereo not given) | < 5.00 | > 10 |
| COc1cccc(Nc2nnc(SCC(=O)N(c3ccccc3)C(C)C)s2)c1 | < 5.00 | > 10 |
| O=C1C=CC(=O)N1c1ccc2c(c1)OCCO2 | < 4.84 | > 14.3 |
| FC(F)(F)c1cccnc1N1CCN(c2ccc(NC(=S)NCc3ccccc3)cn2)CC1 | < 5.16 | > 6.98 |
| O=C(Nc1nc2c(F)cc(F)cc2s1)c1cnccn1 | < 5.00 | > 10 |
| Cc1sc2nc(CN3CCOCC3)nc(NCCc3c[nH]c4ccccc34)c2c1C | < 5.00 | > 10 |
| Cc1c(C(=O)O)cc(-c2ccccc2)n1CCNC(=O)OC(C)(C)C | < 5.02 | > 9.58 |
| Clc1ccc(SCc2nc(N3CCN(c4ncccn4)CC3)c3c4c(sc3n2)CCC4)cc1 | < 5.00 | > 10 |
| Cc1nn2c(SCC(=O)O)cc(C(C)(C)C)nc2c1-c1ccc(Cl)cc1 | < 5.07 | > 8.46 |
| CCN(CC)c1ccc(NC(=O)c2ccc(C)cc2)c(N(CC)CC)n1 | < 5.03 | > 9.31 |
| CC(C)Cc1ccc(C2=Nn3c(nnc3-c3cccs3)SC2C)cc1 (stereo not given) | < 5.13 | > 7.34 |
